Data from the supplement of paper PMC12370961.

How the values were obtained:
Assay in all cases: differential drug sensitivity score (dDSS) relative to sarcoma reference cohort mean DSS (DSS units (0-100 scale difference)); higher = more selective sensitivity than reference sarcomas
Conditions in all cases: exposure time: 72 h; concentration range: 10-10000 nM
CDS-ZH001-2 = test system: CDS-ZH001-2 (patient-derived CIC-DUX4 sarcoma tumoroid)
Description: (§1)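 Drug response profiling of patient-derived Ewing sarcoma and CIC::DUX4 sarcoma tumoroid models (or cells tested directly after isolation from the tumor, 'direct'). The DSS is the normalised AUC (0-100); dDSS is the sample DSS minus the mean DSS of a 34-sarcoma reference cohort profiled in the same lab.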

CDS-ZH001 = test system: CDS-ZH001 (patient-derived CIC-DUX4 sarcoma tumoroid)
Description: as §1

CDS-ZH002 direct = test system: CDS-ZH002 direct (CIC-DUX4 sarcoma cells right after isolation)
Description: as §1

CDS-ZH002 = test system: CDS-ZH002 (patient-derived CIC-DUX4 sarcoma tumoroid)
Description: as §1

CDS-ZH003 = test system: CDS-ZH003 (patient-derived CIC-DUX4 sarcoma tumoroid)
Description: as §1

ES-ZH001 = test system: ES-ZH001 (patient-derived Ewing sarcoma tumoroid)
Description: as §1

ES-ZH002 = test system: ES-ZH002 (patient-derived Ewing sarcoma tumoroid)
Description: as §1

ES-ZH004 = test system: ES-ZH004 (patient-derived Ewing sarcoma tumoroid)
Description: as §1

ES-ZH007 = test system: ES-ZH007 (patient-derived Ewing sarcoma tumoroid)
Description: as §1

ES-ZH008 = test system: ES-ZH008 (patient-derived Ewing sarcoma tumoroid)
Description: as §1

ES-ZH009 = test system: ES-ZH009 (patient-derived Ewing sarcoma tumoroid)
Description: as §1

ES-ZH016 direct = test system: ES-ZH016 direct (Ewing sarcoma cells right after isolation)
Description: as §1

ES-ZH016 = test system: ES-ZH016 (patient-derived Ewing sarcoma tumoroid)
Description: as §1

| Compound | differential drug sensitivity score (CDS-ZH001-2) | differential drug sensitivity score (CDS-ZH001) | differential drug sensitivity score (CDS-ZH002 direct) | differential drug sensitivity score (CDS-ZH002) | differential drug sensitivity score (CDS-ZH003) | differential drug sensitivity score (ES-ZH001) | differential drug sensitivity score (ES-ZH002) | differential drug sensitivity score (ES-ZH004) | differential drug sensitivity score (ES-ZH007) | differential drug sensitivity score (ES-ZH008) | differential drug sensitivity score (ES-ZH009) | differential drug sensitivity score (ES-ZH016 direct) | differential drug sensitivity score (ES-ZH016) |
| --- | --- | --- | --- | --- | --- | --- | --- | --- | --- | --- | --- | --- | --- |
| CCc1cncnc1N1CCN(Cc2nc3ccc(C(F)(F)F)cc3[nH]2)CC1 | -3.6 | -3.7 | -2.4 | -1 | -0.6 | -0.7 | -3.9 | -2.8 | -1.7 | -3.8 | 3.3 | -4.2 | -3.1 |
| N#Cc1ccnc(N2C(=O)CC[C@H]2C(=O)N(c2cncc(F)c2)[C@H](C(=O)NC2CC(F)(F)C2)c2ccccc2Cl)c1 [Ivosidenib] | -2.1 | -2.1 | -2.1 | -2.1 | -2.1 | -2.1 | -2.1 | -2.1 | -2.1 | 7.8 | -2.1 | 18.2 | -2.1 |
| O=c1[nH]c2ccccc2n1C1CCN(CCCC(c2ccc(F)cc2)c2ccc(F)cc2)CC1 [Pimozide] | 6.3 | 3.4 | -2.1 | 0.9 | 5.1 | -4.3 | -2.4 | -3.1 | -2.3 | -3.6 | 7.1 | 7.3 | 5.5 |
| CC1(C)CCC(c2ccc(Cl)cc2)=C(CN2CCN(c3ccc(C(=O)NS(=O)(=O)c4ccc(N[C@H](CCN5CCOCC5)CSc5ccccc5)c(S(=O)(=O)C(F)(F)F)c4)cc3)CC2)C1 [Navitoclax] | 2.5 | -2.9 | -5.8 | -7.6 | 0.6 | 6.7 | 17.3 | -3.4 | -7.4 | 10.4 | 4.9 | 13.7 | -6.4 |
| CC(C)CCN1c2nc(Nc3cc(F)c(O)c(F)c3)ncc2N(C)C(=O)C1C (stereo unspecified) [BI-D1870] | -0.8 | 1.3 | -1.7 | -2.3 | 4.1 | 2.9 | 3.1 | 3 | 0.6 | 5.6 | 8.6 | 7.3 | 2.7 |
| N#CCNC(=O)c1ccc(-c2ccnc(Nc3ccc(N4CCOCC4)cc3)n2)cc1 [Momelotinib] | -1.2 | -1.2 | -1.2 | -1.2 | -1.2 | 4 | 3.7 | -1.2 | -1.2 | -0.8 | 0.5 | -0.5 | 2.6 |
| Cc1c(C(=O)Nc2ccc(N3C[C@@H](C)O[C@@H](C)C3)nc2)cccc1-c1ccc(OC(F)(F)F)cc1 [Sonidegib] | -1.4 | -1.4 | -1.4 | -1.4 | 2.3 | -1.1 | -1.1 | -1.4 | -1.4 | -1.4 | -1.4 | -1.4 | -1.4 |
